Source: patent US20120101132A1, “New Substituted Oxindole Derivative” (priority 2008, published 2012)

Target: T1, recombinant human GSK3β (Homo sapiens, UniProt P49841)
T1 construct: purchased Dundee University, UK
Test: GSK3β Scintillation Proximity Assay (ATP competition)
Assay type: biochemical
Conditions: ATP 1 μM; Km of ATP for GSK3β 20 μM; peptide substrate 1 μM
Experimental: Determination of ATP Competition in Scintillation Proximity GSK3β Assay.
GSK3β Scintillation Proximity Assay.
The competition experiments were carried out in duplicate with 10 different concentrations of the inhibitors in clear-bottom microtiter plates (Wallac, Finland). A biotinylated peptide substrate, Biotin-Ala-Ala-Glu-Glu-Leu-Asp-Ser-Arg-Ala-Gly-Ser(PO3H2)-Pro-Gln-Leu (AstraZeneca, Lund), was added at a final concentration of 1 μM in an assay buffer containing 1 mU recombinant human GSK3β (Dundee University, UK), 12 mM morpholinepropanesulfonic acid (MOPS), pH 7.0, 0.3 mM EDTA, 0.01% β-mercaptorethanol, 0.004% Brij 35 (a […] detergent), 0.5% glycerol and 0.5 μg BSA/25 μl. The reaction was initiated by the addition of 0.04 μCi [γ-^33P]ATP (Amersham, UK) and unlabelled ATP at a final concentration of 1 μM and assay volume of 25 μl. After incubation for 20 minutes at room temperature, each reaction was terminated by the addition of 25 μl stop solution containing 5 mM EDTA, 50 μM ATP, 0.1% Triton X-100 and 0.25 mg streptavidin coated Scintillation Proximity Assay (SPA) beads (Amersham, UK). After 6 hours the radioactivity was determined in a liquid scintillation counter (1450 MicroBeta Trilux, Wallac). The inhibition curves were analysed by non-linear regression using GraphPad Prism, USA. […]

T1 sequence (P49841 whole entry): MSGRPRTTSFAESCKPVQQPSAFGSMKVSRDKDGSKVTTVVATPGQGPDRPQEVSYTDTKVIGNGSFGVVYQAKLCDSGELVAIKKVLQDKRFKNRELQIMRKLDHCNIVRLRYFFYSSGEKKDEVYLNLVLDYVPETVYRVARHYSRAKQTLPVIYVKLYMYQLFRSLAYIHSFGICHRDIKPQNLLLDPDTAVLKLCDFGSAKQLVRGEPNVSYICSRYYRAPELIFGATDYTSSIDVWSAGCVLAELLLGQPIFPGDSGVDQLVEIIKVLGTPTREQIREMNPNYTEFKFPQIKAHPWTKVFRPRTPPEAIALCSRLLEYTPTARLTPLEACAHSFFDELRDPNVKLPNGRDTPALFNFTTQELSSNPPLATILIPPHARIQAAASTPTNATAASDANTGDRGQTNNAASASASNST

Ki: 32 nM
SMILES: N#Cc1ccc2[nH]c(O)c(-c3ccc(C(=O)O)cn3)c2c1 [compound of formula (I), 6-(5-cyano-2-hydroxy-1H-indol-3-yl)pyridine-3-carboxylic acid]
